The values below come from patent publication US20110312941A1, “1,4-DISUBSTITUTED PIPERIDINES AS VASOPRESSIN RECEPTOR VIA ANTAGONISTS” (VANTIA LIMITED, priority 2009, published 2011).

In this assay the target is T1, cloned human V1a receptor (Homo sapiens, UniProt P37288).
T1 construct: host or cells: human brain astrocytoma 1321N1 cells
The assay is described as follows: in vitro functional calcium mobilisation assay (FLIPR), antagonist activity, 1321N1 cells, 250 pM AVP. Format: cell-based. The conditions noted are these: functional pKi derived from pIC50 (Equation 1), FLIPR Ca2+ mobilisation, 1321N1 cells expressing cloned human V1a receptor; for Ki: read-out: Mean fpKi (Human V1a) (converted). On the procedure: The primary assay which may be used to determine the ability of the compounds of formula (1) to inhibit the vasopressin V1a receptor is an in vitro functional calcium mobilisation assay (FLIPR) that measures antagonist activity at a cloned human V1a receptor. The assay is described below.
The antagonist activity of compounds of formula (1) were determined in a Calcium (Ca2+) mobilisation assay using whole cells (human brain astrocytoma 1321N1 cells, ex Perkin Elmer) genetically modified to stably express a cloned human V1a receptor. Dose response curves were determined by displacement of a single concentration of agonist (250 pM AVP, ex Sigma) with increasing concentrations of compound. A pIC50 value is determined by non-linear regression to a 4-parameter logistic equation and a functional pKi (fpKi) derived using Equation 1.
where A=agonist single conc, and A50=the agonist EC50.
(Calcium flux is commonly read through the fluorescence of an indicator in the cells.)

T1 sequence (P37288 whole entry): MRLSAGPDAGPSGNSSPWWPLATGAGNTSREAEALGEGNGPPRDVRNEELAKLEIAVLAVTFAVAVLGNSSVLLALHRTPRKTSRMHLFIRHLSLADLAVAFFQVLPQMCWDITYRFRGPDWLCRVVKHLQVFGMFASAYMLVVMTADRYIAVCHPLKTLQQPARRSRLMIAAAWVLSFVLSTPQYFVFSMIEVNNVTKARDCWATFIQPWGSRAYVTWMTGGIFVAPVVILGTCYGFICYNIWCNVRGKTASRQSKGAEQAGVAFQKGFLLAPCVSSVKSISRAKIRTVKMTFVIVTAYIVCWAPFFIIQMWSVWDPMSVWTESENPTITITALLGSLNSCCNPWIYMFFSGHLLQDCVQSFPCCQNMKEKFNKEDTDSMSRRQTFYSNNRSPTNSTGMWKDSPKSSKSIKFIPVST

Regarding `CCn1ncc2c1Nc1cc(Cl)ccc1N(C(=O)C1CCN(c3cc(C)ccn3)CC1)C2` [Example 121], the Ki was 0.427 nM.
`COc1ccc(N2CCC(C(=O)N3CCc4nc(C)[nH]c4-c4cc(Cl)ccc43)CC2)cc1` [Example 94]: the Ki is 16.2 nM.
Same read-out and setting: the figure for `COc1cccc(N2CCC(C(=O)N3CCc4nc(N5CCOCC5)[nH]c4-c4cc(C)ccc43)CC2)n1` [Example 64] is 6.31 nM.
Still for that read-out and setting: the figure for `O=C(C1CCN(c2cccc(-c3ccccc3)c2)CC1)N1Cc2cccn2Cc2ccccc21` [Example 168] is 151 nM; for `Cc1ccc2c(c1)-c1nc(CC(C)C)[nH]c1CCN2C(=O)C1CCN(c2ccccn2)CC1` [Example 28] it is 13.5 nM.
The same measure, in the same setting: in the case of `Cc1cccc(N2CCC(C(=O)N3CCc4nc(N5CCOCC5)[nH]c4-c4cc(F)ccc43)CC2)n1` [Example 5, (9-Fluoro-2-morpholin-4-yl-4,5-dihydro-1H-1,3,6-triaza-benzo[e]azulen-6-yl)-(6′-methyl-3,4,5,6-tetrahydro-2H-[1,2′]bipyridinyl-4-yl)-methanone] it was 1.78 nM; in that of `Cc1ccc(N2CCC(C(=O)N3CCc4nc(N5CCOCC5)[nH]c4-c4ccccc43)CC2)nc1` [Example 12], 2.14 nM.
As for `Cn1ncc2c1Nc1cc(F)ccc1N(C(=O)C1CCN(c3ncccn3)CC1)C2` [Example 100], the Ki is 145 nM.
On the same count and under the same terms, in the case of `Cc1ccnc(N2CCC(C(=O)N3CCc4nc(N5CCOCC5)[nH]c4-c4ccccc43)CC2)c1` [Example 11] it was 3.72 nM.
Same read-out and setting: in the case of `Cc1ccnc(N2CCC(C(=O)N3Cc4cnn(C)c4Nc4cc(Cl)ccc43)CC2)c1` [Example 117] it was 2 nM; in that of `Cc1ccc2c(c1)Nc1c(cnn1C)CN2C(=O)C1CCN(c2ccc(C(F)(F)F)cc2)CC1` [Example 133], 5.37 nM.
The same measure, in the same setting: the figure for `O=C(C1CCN(c2ccccc2Cl)CC1)N1Cc2cccn2Cc2ccccc21` [Example 157] is 7.59 nM; for `CCn1ncc2c1Nc1cc(Cl)ccc1N(C(=O)C1CCN(c3ncccc3C)CC1)C2` [Example 120] it is 0.912 nM.
`Cc1ccnc(N2CCC(C(=O)N3CCc4nc(C5CCOCC5)[nH]c4-c4cc(C)ccc43)CC2)c1` [Example 38]: the Ki was 2.24 nM.
Same read-out and setting: in the case of `O=C(C1CCN(c2ccccc2)CC1)N1CCc2nc(-c3cccc(F)c3)[nH]c2-c2cc(Cl)ccc21` [Example 81] it was 93.3 nM.
In the case of `O=C(C1CCN(c2ccc(F)cc2)CC1)N1Cc2cccn2Cc2ccccc21` [Example 156], the Ki is 1.45 nM.
Consider `CCc1nc2c([nH]1)-c1cc(C)ccc1N(C(=O)C1CCN(c3cc(C)ccn3)CC1)CC2` [Example 18], for which the Ki was 2.29 nM.
Regarding `Cc1ccc(N2CCC(C(=O)N3Cc4cnn(C(C)(C)C)c4Nc4cc(F)ccc43)CC2)nc1` [Example 108], the Ki is 5.37 nM.
On the same count and under the same terms, the figure for `Cc1ccc2c(c1)-c1[nH]c(C3CCOCC3)nc1CCN2C(=O)C1CCN(c2cccc(C)n2)CC1` [Example 65] is 7.59 nM; for `O=C(C1CCN(c2ccccn2)CC1)N1CCc2nc(C3CC3)[nH]c2-c2cc(Cl)ccc21` [Example 48] it is 10.2 nM; for `CN1CCN(c2nc3c([nH]2)-c2cc(Cl)ccc2N(C(=O)C2CCN(c4ccccc4)CC2)CC3)CC1` [Example 78] it is 8.71 nM.
In the case of `O=C(C1CCN(c2ncccn2)CC1)N1Cc2cccn2Cc2ccccc21` [Example 143], the Ki is 117 nM.
For the molecule `Cc1ccc(N2CCC(C(=O)N3Cc4cnn(C)c4Nc4cc(C)ccc43)CC2)nc1` [Example 112], the Ki was 2.82 nM.
For “(5H,11H-Benzo[e]pyrrolo[1,2-a][1,4]diazepin-10-yl)-[1-(2-nitro-phenyl)-piperidin-4-yl]-methanone [Example 172]”, the “Mean fpKi (Human V1a)” value came to 7.35.
In the case of `Cc1ccc2c(c1)-c1[nH]c(N3CCOCC3)nc1CCN2C(=O)C1CCN(c2ccc(C)nc2)CC1` [Example 4, (9-Methyl-2-morpholin-4-yl-4,5-dihydro-1H-1,3,6-triaza-benzo[e]azulen-6-yl)-(6′-methyl-3,4,5,6-tetrahydro-2H-[1,3′]bipyridinyl-4-yl)-methanone], the Ki is 1.48 nM.
Same read-out and setting: in the case of `Cc1ccc2c(c1)Nc1c(cnn1C)CN2C(=O)C1CCN(c2ncccn2)CC1` [Example 102] it was 151 nM.
On the same count and under the same terms, in the case of `CCn1ncc2c1Nc1cc(F)ccc1N(C(=O)C1CCN(c3nccc(C(F)(F)F)n3)CC1)C2` [Example 101, (3-Ethyl-6-fluoro-4,10-dihydro-3H-2,3,4,9-tetraaza-benzo[f]azulen-9-yl)-[1-(4-trifluoromethyl-pyrimidin-2-yl)-piperidin-4-yl]-methanone] it was 575 nM.
Same read-out and setting: in the case of `O=C(C1CCN(c2ccccn2)CC1)N1CCc2nc(-c3ccccc3)[nH]c2-c2cc(Cl)ccc21` [Example 53] it was 64.6 nM; in that of `COc1cccc(N2CCC(C(=O)N3CCc4nc(N5CCOCC5)[nH]c4-c4cc(Cl)ccc43)CC2)n1` [Example 68], 1.91 nM; in that of `O=C(C1CCN(c2ccccn2)CC1)N1CCc2nc(N3CCCCC3)[nH]c2-c2cc(Cl)ccc21` [Example 50], 24.5 nM.
For `CCc1ccc(N2CCC(C(=O)N3CCc4nc(C)[nH]c4-c4cc(Cl)ccc43)CC2)cc1` [Example 95], the Ki is 3.16 nM.
On the same count and under the same terms, in the case of `Nc1ccccc1N1CCC(C(=O)N2Cc3cccn3Cc3ccccc32)CC1` [Example 175, [1-(2-Amino-phenyl)-piperidin-4-yl]-(5H,11H-benzo[e]pyrrolo[1,2-a][1,4]diazepin-10-yl)-methanone] it was 3.98 nM.
On to `COc1cccc(N2CCC(C(=O)N3Cc4cnn(C)c4Nc4cc(Cl)ccc43)CC2)c1` [Example 137], for which the Ki is 1.78 nM.
With `COc1ccnc(N2CCC(C(=O)N3CCc4nc(C5CCOCC5)[nH]c4-c4cc(C)ccc43)CC2)c1` [Example 41], the Ki is 2.34 nM.
Same read-out and setting: in the case of `CCCc1nc2c([nH]1)-c1cc(C)ccc1N(C(=O)C1CCN(c3ccc(C)cn3)CC1)CC2` [Example 23] it was 2.14 nM; in that of `Cc1ccc(N2CCC(C(=O)N3CCc4nc(C)[nH]c4-c4cc(Cl)ccc43)CC2)nc1` [Example 45, (9-Chloro-2-methyl-4,5-dihydro-1H-1,3,6-triaza-benzo[e]azulen-6-yl)-(5′-methyl-3,4,5,6-tetrahydro-2H-[1,2′]bipyridinyl-4-yl)-methanone], 6.31 nM.
The same measure, in the same setting: in the case of `Cc1cccc(N2CCC(C(=O)N3Cc4cccn4Cc4ccccc43)CC2)c1` [Example 160] it was 3.16 nM; in that of `COc1cccnc1N1CCC(C(=O)N2CCc3nc(C4CCOCC4)[nH]c3-c3cc(C)ccc32)CC1` [Example 40], 1.26 nM.
In the case of `O=C(C1CCN(c2ccccc2F)CC1)N1Cc2cccn2Cc2ccccc21` [Example 154], the Ki was 1.48 nM.
Same read-out and setting: the figure for `Cc1nc2c([nH]1)-c1cc(Cl)ccc1N(C(=O)C1CCN(c3cccc(F)c3)CC1)CC2` [Example 84] is 38 nM.
The same measure, in the same setting: the figure for `CCc1nc2c([nH]1)-c1cc(C)ccc1N(C(=O)C1CCN(c3cccc(C)n3)CC1)CC2` [Example 61] is 7.41 nM; for `O=C(C1CCN(c2ccc([N+](=O)[O-])cc2)CC1)N1Cc2cccn2Cc2ccccc21` [Example 174] it is 162 nM; for `O=C(C1CCN(c2ccccc2)CC1)N1CCc2nc(-c3ccccc3)[nH]c2-c2cc(Cl)ccc21` [Example 79] it is 77.6 nM.
Still for that read-out and setting: the figure for `Cc1ccc(N2CCC(C(=O)N3Cc4cnn(C)c4Nc4cc(Cl)ccc43)CC2)nc1` [Example 118] is 1.74 nM; for `Cc1ccc(N2CCC(C(=O)N3CCc4nc(N5CCOCC5)[nH]c4-c4cc(F)ccc43)CC2)nc1` [Example 16] it is 2.95 nM.
Consider `Cc1nc2c([nH]1)-c1cc(Cl)ccc1N(C(=O)C1CCN(c3ccccc3Cl)CC1)CC2` [Example 86], for which the Ki is 31.6 nM.
On to `COc1ccccc1N1CCC(C(=O)N2Cc3cccn3Cc3ccccc32)CC1` [Example 162], for which the Ki was 3.16 nM.
Still for that read-out and setting: the figure for `Cc1nc2c([nH]1)-c1ccccc1N(C(=O)C1CCN(c3ccccn3)CC1)CC2` [Example 8] is 151 nM; for `CCCc1nc2c([nH]1)-c1cc(Cl)ccc1N(C(=O)C1CCN(c3ccccc3)CC1)CC2` [Example 74] it is 15.1 nM; for `CCCc1nc2c([nH]1)-c1cc(Cl)ccc1N(C(=O)C1CCN(c3ccccn3)CC1)CC2` [Example 47] it is 11.7 nM.
On the same count and under the same terms, the figure for `CCCc1ccc(N2CCC(C(=O)N3Cc4cccn4Cc4ccccc43)CC2)cc1` [Example 166] is 3.89 nM.
Same read-out and setting: the figure for `Cc1ccc2c(c1)-c1[nH]c(N3CCOCC3)nc1CCN2C(=O)C1CCN(c2ccc(C(F)(F)F)cn2)CC1` [Example 35] is 7.08 nM; for `Cc1ccc2c(c1)-c1[nH]c(N3CCOCC3)nc1CCN2C(=O)C1CCN(c2ccccn2)CC1` [Example 31] it is 3.8 nM.
As for `Cc1cccc(N2CCC(C(=O)N3Cc4cnn(C)c4Nc4cc(Cl)ccc43)CC2)c1` [Example 135], the Ki was 1.29 nM.
On the same count and under the same terms, in the case of `Cc1nc2c([nH]1)-c1cc(Cl)ccc1N(C(=O)C1CCN(c3cccc(Cl)c3)CC1)CC2` [Example 87] it was 69.2 nM; in that of `O=C(C1CCN(c2ccccn2)CC1)N1CCc2nc(-c3ccccc3F)[nH]c2-c2cc(Cl)ccc21` [Example 54], 75.9 nM.
The same measure, in the same setting: the figure for `Cc1nc2c([nH]1)-c1cc(Cl)ccc1N(C(=O)C1CCN(c3ccccn3)CC1)CC2` [Example 44] is 12.6 nM.
Still for that read-out and setting: in the case of `CCc1nc2c([nH]1)-c1cc(C)ccc1N(C(=O)C1CCN(c3cc(C)ccn3)CC1)CC2` [Example 19] it was 2.34 nM; in that of `Cc1ccc2c(c1)-c1[nH]c(N3CCOCC3)nc1CCN2C(=O)C1CCN(c2ccc(C#N)cn2)CC1` [Example 36], 97.7 nM.
